Results published in patent US20190388389A1, “METHODS AND COMPOSITIONS OF CARNOSOL FOR INHIBITING UVB-INDUCED SKIN DAMAGE” (Ohio University, priority 2017, published 2019).

What was measured:
normal skin cells = assay: Cell viability with carnosol or its UVB-decomposed molecules (FIG. 12); format: cell-based; details: within 12 h after treatment
Protocol: FIG. 12. The effect of carnosol or its decomposed molecules on cell viability. Cell viability assay of carnosol and its UVB-decomposed molecules on normal skin cells in a time dependent manner (6, 12, and 24 h after UVB radiation).
(§1) UVB was generated from a Bench XX-Series UV Lamp (UVP Inc.) equipped with two 15-watt UVB tubes (UVP Inc.). The intensity of UVB was calibrated by a UVP model UVX digital radiometer (UVP Inc.) after the lamps warmed up for 5 min. For irradiating cells, the dose rate for 8 mJ/cm^2 or 50 mJ/cm^2 of UVB radiation was 0.8 or 3.8 mW/s respectively. Medium was removed before exposing the cells to UVB. After UVB radiation, fresh medium was added to the culture plates with or without drugs, and the cells were continue incubating at 37° C. with 5% CO2 until further analysis. Carnosol was disovled in DMSO and was irradiated with 50 mJ/cm^2 of UVB radiation at a dose rate of 3.8 mW/s before subjecting to cells or structure analysis using Mass Spectrum.

[1] = UVB irradiation of carnosol in DMSO, Mass Spectrum; format: physicochemical; details: 50 mJ/cm^2 UVB
Protocol: FIG. 10B. The carnosol was irradiated with UVB first in the DMSO solution, and then a Mass Spectrum was run to detect the decomposition of the compound.
FIG. 10C. Four major decomposed compounds were detected, with their molecular structure and weight solved.
as §1

[2] = tested on: A431 human squamous carcinoma cell; assay: MTT cell viability assay, A431; format: cell-based; details: A431, carnosol plus 50 mJ/cm^2 UVB, 24 h, vs no treatment control; UVB alone about 50%
Protocol: FIGS. 9A-9B. Carnosol decreases A431 cancer cell progression. Squamous carcinoma cell A431 was used to determine the effect of carnosol on cancer cell progression. (FIG. 9A) Effect of carnosol on cell viability. Cells were treated upon 50 mJ/cm^2 UVB radiation with or without carnosol treatment. After 24 h, cells were collect and MTT assay was performed to determine the cell viability. *p<0.05 versus control group, **p<0.05 versus UV group at indicated time point. (FIG. 9B) Effect of carnosol on clonogenic assay. Cells were exposed to 8 mJ/cm^2 UVB exposure in the presence or absence of carnosol. 5×10^3 cells were plated into 6 well plate immediately after treatment and incubated for […]. The error bars present the standard deviation of three sets of independent experiments. *p<0.05 versus control group, **p<0.05 versus UV group at indicated time point.
Since carnosol protects cell death upon UVB radiation, how carnosol affects skin cancer cells was also determined. A431 human squamous carcinoma cell was used as it is one of the cancer types that keratinocyte would develop. Cell viability was determined by MTT assay.

p-Chk = assay: Immunostaining of p-Chk in HaCaT cells upon UVB radiation; format: cell-based, Human; details: immunofluorescence
Text: FIG. 5C: Immunostaining of p-Chk in HaCaT cells upon UVB radiation with or without carnosol treatment. P-Chk was stained with green fluorescent, while nucleus was stained by DAPI. Scale indicates 20 μm.
Both human keratinocyte (HaCaT) and mouse embryonic fibroblast (MEF) cells were used, and the protein levels of γH2AX and phosphor-Chk were used as DNA damage marker. […] Similar results are observed in MEF cells as both the phosphorylation level of H2AX and Chk reduced at early stage post UVB radiation (FIG. 5B). […] To further show the protection effect of carnosol on UVB-irradiated cell, a comet assay was performed. […] Thus, carnosol ast least partially protect the DNA damage from UVB radiation.

[3] = tested on: γH2AX (phosphorylated H2AX); assay: Western blot of DNA damage marker, MEF cells; format: cell-based, mouse; details: early stage post UVB 50 mJ/cm^2
Protocol: (§2) FIGS. 5A-5B: Carnosol protects UVB-induced DNA damage. (FIG. 5A) HaCaT cells and (FIG. 5B) MEF cells were exposed to 50 mJ/cm^2 UVB radiation in the presence or absence of carnosol. Cells were lysed at indicated time point and protein levels of phosphorylated H2AX and Chk were measured. The data represents three sets of independent experiments.
(§3) Cells were lysed with Nonidet P-40 (NP-40) lysis buffer (2% NP-40, 80 mM NaCl, 100 mM Tris-HCl pH 8.0, 0.1% SDS) with proteinase inhibitor mixture (Complete™, Roche Molecular Biochemicals) at indicated time point. Cell lysate was incubated on ice for 15 min and then centrifuged at 14,000 rpm at 4° C. for 15 min. Protein concentration was measured by Protein DC Assay kit (Bio-Rad Laboratories). Equal amounts of protein were subjected on SDS-PAGE and transferred to a nitrocellulose membrane. The membrane was then blocked in 5% milk in Tris buffered saline plus Tween 20 ® (TBST) for 45 min and probed with anti-yH2AX (Cell Signaling), anti-pCHK (Cell Signaling), anti-p276-NF-κB (Santa Cruz), anti-NF-κB p65 (Santa Cruz), anti-IκB (Santa Cruz), or anti-β-actin (Santa Cruz) at 4° C. overnight. After washing with TBST, the membrane was incubated with corresponding HRP-conjugated anti-rabbit or anti-mouse antibody for 45 min at room temperature. […]

phosphor-Chk = assay: Western blot of DNA damage marker, MEF cells; format: cell-based, mouse; details: early stage post UVB 50 mJ/cm^2
Protocol: as §2, §3

IκB = assay: Western blot for IκB protein level, MEF cells; format: cell-based, mouse; details: 20 μM carnosol, 6 h post UVB
Protocol: FIGS. 7A-7F: Carnosol inhibited UVB-induced NF-κB activation. Cells were exposed to UVB radiation in the presence or absence of carnosol. Cells were lysed at indicated time point and protein levels were measured by western blot analysis. (FIG. 7A) Western blot for IκB protein level in HaCaT cells at 2, 4 h post UVB radiation at 1, 10 or 20 μM carnosol treatment. (FIG. 7B) Western blot analysis for IκB protein level in HaCaT cells at 6 h post UVB radiation in the presence or absence of carnosol. (FIG. 7C) Western blot analysis for IκB protein level in MEF cells at 6 h post UVB radiation in the presence or absence of carnosol. (FIG. 7D) Western blot for 5276 site phosphorylation of NF-κB in HaCaT cells at 6 h post UVB with indicated carnosol concentration. (FIG. 7E) EMSA assay for HaCaT cells at 2, 4, 6 h post UVB radiation in the presence or absence of carnosol (20 μM). (FIG. 7F) Statistical analysis of the EMSA assay using two to three sets of independent experiments. *p<0.05 versus control group, **p<0.05 versus UV group at indicated time point.
Cells were lysed with Nonidet P-40 (NP-40) lysis buffer (2% NP-40, 80 mM NaCl, 100 mM Tris-HCl pH 8.0, 0.1% SDS) with proteinase inhibitor mixture (Complete™, Roche Molecular Biochemicals) at indicated time point. […] Protein concentration was measured by Protein DC Assay kit (Bio-Rad Laboratories). […]

CC(C)c1cc2c(c(O)c1O)[C@@]13CCCC(C)(C)[C@@H]1C[C@@H]2OC3=O [carnosol]
protection of cell damage from UVB radiation (viability) (normal skin cells): can protect cell damage from UVB radiation in short term | decomposition upon UVB radiation [1]: breaks down to 4 major products | cell viability [2]: 30% | UVB-induced expression level of p-Chk in nucleus (p-Chk): significantly reduce | phosphorylation level of H2AX [3]: reduced | phosphorylation level of Chk (phosphor-Chk): reduced | IκB protein level (IκB): partial recovery of IκB level
